Values quoted from earlier work as cited in US6046331A, “Imidazolones and their use in treating benign prostatic hyperplasia and other disorders” (Synaptic Pharmaceutical Corporation, priority 1998, dated 2000).

Legend:
[1] = in vivo; cited from earlier work
[2] = cited from earlier work

SMILES | side effects [1] | relieving the symptoms of / treating BPH [2]
Clc1cccc(Cl)c1N=C1NCCN1 [clonidine] | dry mouth and sedation | 
CC(COc1ccccc1)N(CCCl)Cc1ccccc1 (stereo not shown) [phenoxybenzamine] | significant side effects such as dizziness and asthenia | useful in relieving the symptoms of BPH
COc1cc2nc(N3CCN(C(=O)c4ccco4)CC3)nc(N)c2cc1OC [prazosin] | untoward side effects | useful for treating BPH
COc1cc2nc(N3CCN(C(=O)C4CCCO4)CC3)nc(N)c2cc1OC (stereo not shown) [terazosin] | untoward side effects | useful for treating BPH
